Measurements published in PMC8192883, “Novel 1,2,4-oxadiazole derivatives as selective butyrylcholinesterase inhibitors: Design, synthesis and biological evaluation” (EXCLI Journal, 2021).
Where two headings read alike, the source gives them in different places.

Legend:
[1] = target: T1, AChE (E.C. 3.1.1.7, type V-S) (Electrophorus electricus, UniProt O42275); test: biochemical; conditions: Ellman's method, electric eel AChE, mean ± SD
T1 construct: purchased Sigma-Aldrich type V-S (catalogue number not given); host or cells: electric eel (natural source)
T1 sequence (O42275 24-633): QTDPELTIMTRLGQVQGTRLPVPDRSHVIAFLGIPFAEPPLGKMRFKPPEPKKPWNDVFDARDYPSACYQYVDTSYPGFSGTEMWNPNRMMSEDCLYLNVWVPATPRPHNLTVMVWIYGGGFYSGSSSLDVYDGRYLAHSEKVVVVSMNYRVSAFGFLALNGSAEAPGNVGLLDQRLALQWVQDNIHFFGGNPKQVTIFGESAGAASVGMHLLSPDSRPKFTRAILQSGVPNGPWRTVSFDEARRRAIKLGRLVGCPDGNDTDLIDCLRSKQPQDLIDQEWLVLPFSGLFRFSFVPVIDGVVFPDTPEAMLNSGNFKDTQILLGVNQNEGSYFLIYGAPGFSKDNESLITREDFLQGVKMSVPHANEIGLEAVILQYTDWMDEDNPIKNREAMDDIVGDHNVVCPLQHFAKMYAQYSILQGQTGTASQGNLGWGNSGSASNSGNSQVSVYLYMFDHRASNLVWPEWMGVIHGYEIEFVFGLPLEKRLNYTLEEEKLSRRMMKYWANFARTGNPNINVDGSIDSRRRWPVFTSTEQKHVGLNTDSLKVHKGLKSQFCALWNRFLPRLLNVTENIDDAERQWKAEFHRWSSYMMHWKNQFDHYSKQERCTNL
Description: (§1) The inhibitory activity of the designed compounds against BuChE and AChE was evaluated using Ellman's method. […] AChE (E.C. 3.1.1.7, type V-S, lyophilized powder, from the electric eel, 1000 units) and BuChE (E.C. 3.1.1.8, from equine serum), acetylthiocholine iodide (ATCI), butyrylthiocholine iodide (BTCI), and 5,5-dithiobis-(2-nitrobenzoic acid) (DTNB) were all acquired from Sigma-Aldrich. Potassium dihydrogen phosphate, dipotassium hydrogen phosphate, potassium hydroxide, and sodium hydrogen carbonate were obtained from Fluka. […] In this regard, each one of the wells included a 50 µL potassium phosphate buffer, 25 µL sample dissolved in 50 % methanol and 50 % DMSO, and 25 µL enzyme (the final concentration 0.22 U/mL in buffer). Thereafter, the wells were pre-incubated for 15 min at room temperature, and 125 µL DTNB (3 mM in buffer) was added to each plate. […] As well, the IC50 values were expressed as mean ± SD. The percentage of enzyme's inhibition was calculated by comparing with a blank sample (100 % activity). The described method was also used for the BuChE inhibition assay.

BuChE (E.C. 3.1.1.8) = target: T2, BuChE (E.C. 3.1.1.8) (Equus caballus, UniProt P81908); test: biochemical; conditions: for IC50: Ellman's method, equine serum BuChE, mean ± SD; for SI (selectivity towards BuChE): SI ratio, values match IC50 AChE / IC50 BuChE
T2 construct: purchased Sigma-Aldrich; host or cells: equine serum (natural source)
T2 sequence (P81908 whole entry): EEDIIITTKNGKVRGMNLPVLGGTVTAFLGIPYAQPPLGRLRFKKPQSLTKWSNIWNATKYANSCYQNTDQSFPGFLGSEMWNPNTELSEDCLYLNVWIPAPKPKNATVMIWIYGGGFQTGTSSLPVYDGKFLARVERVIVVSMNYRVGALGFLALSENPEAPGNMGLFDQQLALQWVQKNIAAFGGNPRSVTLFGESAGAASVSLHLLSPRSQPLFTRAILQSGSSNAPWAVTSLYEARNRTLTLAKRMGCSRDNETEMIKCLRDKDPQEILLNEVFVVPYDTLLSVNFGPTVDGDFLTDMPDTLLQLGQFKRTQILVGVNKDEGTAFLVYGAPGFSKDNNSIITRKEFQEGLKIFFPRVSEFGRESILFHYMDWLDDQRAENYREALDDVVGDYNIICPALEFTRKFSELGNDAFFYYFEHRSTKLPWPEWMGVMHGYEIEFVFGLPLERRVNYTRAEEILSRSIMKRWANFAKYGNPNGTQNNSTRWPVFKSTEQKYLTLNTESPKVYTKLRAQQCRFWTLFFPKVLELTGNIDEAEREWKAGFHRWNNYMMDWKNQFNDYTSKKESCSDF
Description: as §1

AChE = tested on: AChE; set-up: method as in earlier work; conditions: Figure 2, known inhibitors, ref Wajid et al., 2019, Wu et al., de Andrade et al., Joubert and Kapp, 2020; cited from earlier work
BuChE = conditions: ref Wajid et al., 2019, Wu et al., cited from earlier work
[2] = Figure 2, known inhibitors, de Andrade et al., Joubert and Kapp, 2020

| Structure (SMILES) | IC50 [1] [µM] | IC50 (BuChE (E.C. 3.1.1.8)) [µM] | SI (selectivity towards BuChE) (BuChE (E.C. 3.1.1.8)) | also measured |
| --- | --- | --- | --- | --- |
| Cc1ccc(CN2CCC(c3nc(-c4ccc(C)cc4)no3)CC2)cc1 [6r, 5-(1-(4-methylbenzyl)piperidin-4-yl)-3-(p-tolyl)-1,2,4-oxadiazole] | > 100 | 62.8 ± 0.65 | > 1.59 | – |
| Fc1ccc(CN2CCC(c3nc(-c4ccc(Cl)cc4)no3)CC2)cc1 [6g, 3-(4-chlorophenyl)-5-(1-(4-fluorobenzyl)piperidin-4-yl)-1,2,4-oxadiazole] | > 100 | > 100 | – | – |
| Fc1ccc(-c2noc(C3CCN(Cc4ccccc4)CC3)n2)cc1 [6d, 5-(1-benzylpiperidin-4-yl)-3-(4-fluorophenyl)-1,2,4-oxadiazole] | 21.16 ± 0.13 | 24.8 ± 0.97 | 0.85 | – |
| Clc1ccc(-c2noc(C3CCN(Cc4ccccc4Cl)CC3)n2)cc1 [6o, 5-(1-(2-chlorobenzyl)piperidin-4-yl)-3-(4-chlorophenyl)-1,2,4-oxadiazole] | > 100 | 81.2 ± 0.98 | > 1.23 | – |
| CCCCCCCNC(=O)Oc1cccc(-c2coc3c4c(ccc3c2=O)OC(C)(C)C=C4)c1F [compound 1] | – | – | – | IC50 (AChE): 297 µM; IC50 (BuChE; [2]): 0.222 µM |
| Clc1ccc(-c2noc(C3CCN(Cc4ccccc4)CC3)n2)cc1 [6c, 5-(1-benzylpiperidin-4-yl)-3-(4-chlorophenyl)-1,2,4-oxadiazole] | > 100 | > 100 | – | – |
| Fc1ccc(CN2CCC(c3nc(-c4ccc(F)cc4)no3)CC2)cc1 [6h, 5-(1-(4-fluorobenzyl)piperidin-4-yl)-3-(4-fluorophenyl)-1,2,4-oxadiazole] | > 100 | > 100 | – | – |
| Cc1ccc(-c2noc(C3CCN(Cc4ccc(F)cc4)CC3)n2)cc1 [6f, 5-(1-(4-fluorobenzyl)piperidin-4-yl)-3-(p-tolyl)-1,2,4-oxadiazole] | > 100 | 50.7 ± 0.06 | > 1.97 | – |
| CC(=O)N[C@@H](Cn1cc(-c2ccccc2)nn1)C(=O)NCC1CCN(Cc2ccccc2)CC1 [compound 3] | – | – | – | IC50 (AChE): > 10 µM; IC50 (BuChE; [2]): 0.00017 µM |
| O=C(Nc1c(Cl)cccc1Cl)c1ccc(Br)cc1 [compound 2] | – | – | – | AChE IC50 (AChE): inactive; IC50 (BuChE; Figure 2, known inhibitor): 0.8 µM |
| c1ccc(CN2CCC(c3nc(-c4ccccc4)no3)CC2)cc1 [6a, 5-(1-benzylpiperidin-4-yl)-3-phenyl-1,2,4-oxadiazole] | 35.5 | 14.2 | 2.49 | – |
| Cc1ccc(CN2CCC(c3nc(-c4ccccc4)no3)CC2)cc1 [6q, 5-(1-(4-methylbenzyl)piperidin-4-yl)-3-phenyl-1,2,4-oxadiazole] | > 100 | > 100 | – | – |
| Fc1ccc(-c2noc(C3CCN(Cc4ccccc4Cl)CC3)n2)cc1 [6p, 5-(1-(2-chlorobenzyl)piperidin-4-yl)-3-(4-fluorophenyl)-1,2,4-oxadiazole] | > 100 | > 100 | – | – |
| Cc1ccc(-c2noc(C3CCN(Cc4ccccc4)CC3)n2)cc1 [6b, 5-(1-benzylpiperidin-4-yl)-3-(p-tolyl)-1,2,4-oxadiazole] | > 100 | 9.81 | > 10.19 | – |
| Cc1ccc(CN2CCC(c3nc(-c4ccc(F)cc4)no3)CC2)cc1 [6t, 3-(4-fluorophenyl)-5-(1-(4-methylbenzyl)piperidin-4-yl)-1,2,4-oxadiazole] | > 100 | > 100 | – | – |
| Clc1ccc(CN2CCC(c3nc(-c4ccc(Cl)cc4)no3)CC2)cc1 [6k, 5-(1-(4-chlorobenzyl)piperidin-4-yl)-3-(4-chlorophenyl)-1,2,4-oxadiazole] | > 100 | > 100 | – | – |
| Fc1ccc(CN2CCC(c3nc(-c4ccccc4)no3)CC2)cc1 [6e, 5-(1-(4-fluorobenzyl)piperidin-4-yl)-3-phenyl-1,2,4-oxadiazole] | > 100 | > 100 | – | – |
| Cc1ccc(-c2noc(C3CCN(Cc4ccc(Cl)cc4)CC3)n2)cc1 [6j, 5-(1-(4-chlorobenzyl)piperidin-4-yl)-3-(p-tolyl)-1,2,4-oxadiazole] | > 100 | 50.3 ± 0.77 | > 1.98 | – |
| Clc1ccccc1CN1CCC(c2nc(-c3ccccc3)no2)CC1 [6m, 5-(1-(2-chlorobenzyl)piperidin-4-yl)-3-phenyl-1,2,4-oxadiazole] | > 100 | > 100 | – | – |
| COc1cc(C2C3=C(CCCC3=O)NC3=C2C(=O)CCC3)ccc1OCc1ccc(F)cc1 [compound 4] | – | – | – | IC50 (AChE): 125 µM; IC50 (BuChE; [2]): 0.098 µM |
| Clc1ccc(CN2CCC(c3nc(-c4ccccc4)no3)CC2)cc1 [6i, 5-(1-(4-chlorobenzyl)piperidin-4-yl)-3-phenyl-1,2,4-oxadiazole] | > 100 | > 100 | – | – |
| Fc1ccc(-c2noc(C3CCN(Cc4ccc(Cl)cc4)CC3)n2)cc1 [6l, 5-(1-(4-chlorobenzyl)piperidin-4-yl)-3-(4-fluorophenyl)-1,2,4-oxadiazole] | > 100 | > 100 | – | – |
| Cc1ccc(-c2noc(C3CCN(Cc4ccccc4Cl)CC3)n2)cc1 [6n, 5-(1-(2-chlorobenzyl)piperidin-4-yl)-3-(p-tolyl)-1,2,4-oxadiazole] | > 100 | 5.07 | greater than 19.72 | – |
| Cc1ccc(CN2CCC(c3nc(-c4ccc(Cl)cc4)no3)CC2)cc1 [6s, 3-(4-chlorophenyl)-5-(1-(4-methylbenzyl)piperidin-4-yl)-1,2,4-oxadiazole] | > 100 | > 100 | – | – |
